Results reported in PubChem BioAssay AID1626 (SRMLSC, 2009).

Test system: M. tuberculosis H37Rv growth inhibition
Assay: M. tuberculosis H37Rv growth inhibitors, H37Rv strain (AID 1626)
Conditions: for IC90: measured here: IC90 against H37Rv; for CC50: measured here: Vero cell cytotoxicity

Structure (SMILES): COc1ccc(N=Cc2c(O)ccc3ccccc23)cc1
- IC90: > 100 µM

Structure (SMILES): O=C(O)C1CCCCC1C(=O)Nc1ccc2c(c1)CCC2 (configuration not stated)
- IC50: 73.5 µM
- IC90: > 100 µM

Structure (SMILES): O=C(COc1ccc2ccccc2c1)Nc1nccs1
- IC90: > 100 µM

Structure (SMILES): O=C(/C=C/c1ccc(Cl)cc1Cl)c1cccnc1
- IC50: 2.97 µM
- IC90: 3.35 µM
- CC50: 30.6 µM

Structure (SMILES): CCCCCc1cc(=O)oc2c(C(CCN3CCCCC3)c3ccc(OC)cc3)c(OC)cc(OC)c12 (configuration not stated)
- IC50: 2.86 µM
- IC90: 3.91 µM
- CC50: 14.9 µM

Structure (SMILES): COc1ccc2nc(N=Nc3ccc(O)c4ccccc34)sc2c1
- IC50: 5.17 µM
- IC90: 10.1 µM
- CC50: 4.6 µM

Structure (SMILES): COc1ccc(-c2nsc(SCC(=O)NCC3CCCO3)n2)cc1 (configuration not stated)
- IC50: 2.25 µM
- IC90: 5.2 µM

Structure (SMILES): O=C(CSc1nnc(-c2cccs2)o1)OC1CCCCC1
- IC50: 2.23 µM
- IC90: 7.65 µM

Structure (SMILES): Cc1ccccc1-n1ncc2c([N+](=O)[O-])cc([N+](=O)[O-])cc21
- IC50: 2.97 µM
- IC90: 4.48 µM
- CC50: > 40 µM

Structure (SMILES): COc1ccc(N2CCN(Cc3nc(N)nc(Nc4ccc(C)c(Cl)c4)n3)CC2)cc1
- IC50: 0.546 µM
- IC90: 1.71 µM
- CC50: > 40 µM

Structure (SMILES): O=Cc1ccc(O)c2ncccc12
- IC50: 0.378 µM
- IC90: 0.549 µM
- CC50: 7.88 µM

Structure (SMILES): CC1(C)OC(=O)C(=Cc2ccc[nH]2)C(=O)O1
- IC50: < 0.195 µM
- IC90: > 100 µM

Structure (SMILES): C=CCSc1nnc(-c2ccc([N+](=O)[O-])cc2)o1
- IC50: < 0.195 µM
- IC90: 0.843 µM

Structure (SMILES): O=C(c1ccccc1)c1c2c(cc3sc4ccccc4[n+]13)-c1cccc3cccc-2c13
- IC50: 2.81 µM
- IC90: 5.22 µM
- CC50: 23.1 µM

Structure (SMILES): CCCSc1ccc(C(=O)Nc2ccc(Cl)cc2)cn1
- IC50: 27.9 µM
- IC90: > 100 µM

Structure (SMILES): Cc1cccc(NC(=O)c2ccc([N+](=O)[O-])o2)c1C
- IC50: 12.2 µM
- IC90: 23.9 µM
- CC50: 11.5 µM

Structure (SMILES): Cc1cc(NC(=O)CSc2nc(C(C)C)nc3sc4c(c23)CCCC4)no1
- IC50: 11.2 µM
- IC90: > 100 µM
- CC50: > 40 µM

Structure (SMILES): CC(=O)C1=C(C)NC(SCC(=O)c2ccc(Cl)c(Cl)c2)=C(C#N)C1c1ccco1 (configuration not stated)
- IC50: 5.85 µM
- IC90: 6.67 µM
- CC50: > 40 µM

Structure (SMILES): O=C(NCCC1=CCCCC1)NC12CC3CC(CC(C3)C1)C2
- IC50: < 0.195 µM
- IC90: 67.6 µM

Structure (SMILES): O=C(NCCc1ccc(Cl)cc1)c1ccc(CNc2c(N3CCOCC3)c(=O)c2=O)cc1
- IC50: 2.85 µM
- IC90: 3.19 µM

Structure (SMILES): Cc1ccc(C(=O)NCCSC(C)(C)C)cc1[N+](=O)[O-]
- IC50: 2.96 µM
- IC90: 3.32 µM

Structure (SMILES): CCOC(=O)c1ccc(-n2c(CN(CC)CC)nc3ccc([N+](=O)[O-])cc3c2=O)cc1
- IC50: 54.1 µM
- IC90: > 100 µM

Structure (SMILES): COc1ccc(NCc2ccc([N+](=O)[O-])s2)cc1
- IC50: 59.4 µM
- IC90: > 100 µM

Structure (SMILES): CCc1c(C#N)c(N)nc(SCC(=O)OCc2ccccc2)c1C#N
- IC90: > 100 µM

Structure (SMILES): CCN(CC)CCCNc1nc2cc(OC)c(OC)cc2c2nc(-c3ccccc3)nn12
- IC50: 9.3 µM
- IC90: 13.8 µM
- CC50: > 40 µM

Structure (SMILES): CCN(Cc1nc2ccccc2c(=O)[nH]1)Cc1nc2ccsc2c(=O)[nH]1
- IC50: 15.8 µM
- IC90: > 100 µM
- CC50: > 40 µM

Structure (SMILES): c1ccc(-c2nc(NCC3CCCO3)c3ccccc3n2)nc1 (configuration not stated)
- IC50: 3.11 µM
- IC90: 3.21 µM
- CC50: > 40 µM

Structure (SMILES): Cc1ccc(NCCC(=O)c2cccs2)cc1
- IC50: 24.8 µM
- IC90: 32.7 µM

Structure (SMILES): O=[N+]([O-])c1cc(S(=O)(=O)Nc2ccccc2)ccc1N1CCN(c2ccccc2)CC1
- IC50: 14.5 µM
- IC90: 25.5 µM
- CC50: 28.2 µM

Structure (SMILES): COc1ccc(O)c(C(=O)CC(=O)c2ccccc2C)c1
- IC50: 17.2 µM
- IC90: > 100 µM
- CC50: 17.1 µM

Structure (SMILES): O=C(OCC(=O)N1CCCCC1)c1cc2ccccc2cc1O
- IC50: 1.62 µM
- IC90: 10.6 µM

Structure (SMILES): COC(=O)c1ccc(C(=O)OC)c(NC(=O)CN2CCN(c3ccccc3)CC2)c1
- IC50: 66.1 µM
- IC90: > 100 µM
- CC50: > 40 µM

Structure (SMILES): N#CC1=C(S)N(c2ccccc2)C(c2ccc(-c3ccc(Cl)c(Cl)c3)o2)NC1=O (configuration not stated)
- IC50: 41 µM
- IC90: > 100 µM

Structure (SMILES): O=c1oc(/C=C/c2ccccc2)nc2ccccc12
- IC50: 12.7 µM
- IC90: > 100 µM

Structure (SMILES): Cn1c(O)c(C=Nc2ccc3c(c2)CCC3)c(=O)n(C)c1=O
- IC90: > 100 µM

Structure (SMILES): COc1ccccc1Sc1nc(-c2ccccn2)ncc1OC
- IC50: 1.04 µM
- IC90: > 100 µM
- CC50: 7.61 µM

Structure (SMILES): CC(C)c1ccc(C2C3=C(CC(C)(C)CC3=O)NC3=C2C(=O)c2ccccc23)cc1 (configuration not stated)
- IC50: 50.6 µM
- IC90: > 100 µM
- CC50: > 40 µM

Structure (SMILES): CC(C)N1C(=O)NC(=O)C2(Cc3cc([N+](=O)[O-])ccc3N(C)C2c2ccccc2)C1=O (configuration not stated)
- IC50: 17.8 µM
- IC90: 52.1 µM
- CC50: > 40 µM

Structure (SMILES): C/C(=N\N=C(/N)SC1CC(=O)N(c2ccc(Br)cc2)C1=O)c1cccs1 (configuration not stated)
- IC50: 9.24 µM
- IC90: 16.8 µM
- CC50: > 40 µM

Structure (SMILES): Nc1cccc(-c2cc3ccccc3oc2=O)c1
- IC50: 29.4 µM
- IC90: > 100 µM

Structure (SMILES): O=C(Nc1ccc(Nc2ccncc2)cc1)c1ccc(Nc2ccnc3ccc([N+](=O)[O-])cc23)cc1[N+](=O)[O-]
- IC50: 1.39 µM
- IC90: 1.57 µM
- CC50: > 40 µM

Structure (SMILES): CCOC(=O)c1cnn(C(=O)c2ccccc2)c1N
- IC90: > 100 µM

Structure (SMILES): COC(=O)C1C2c3ccccc3OC1(C)N=c1s/c(=C/c3cnn(C)c3C)c(=O)n12 (configuration not stated)
- IC50: 2.43 µM
- IC90: 17.7 µM

Structure (SMILES): O=C1N=C2N(CCN3CCCCC3)c3ccccc3N2/C1=C\c1ccc([N+](=O)[O-])o1
- IC50: 1.56 µM
- IC90: 1.6 µM
- CC50: 4.9 µM

Structure (SMILES): COc1cc(/C=C/C(=O)OCC(=O)NC(=O)NC23CC4CC(CC(C4)C2)C3)ccc1OCC#N
- IC50: 8.37 µM
- IC90: > 100 µM
- CC50: > 40 µM

Structure (SMILES): CCC(CO)[n+]1c(C)cc(/C=C2\Sc3ccccc3N2Cc2ccccc2)cc1C (configuration not stated)
- IC50: 1.3 µM
- IC90: 1.95 µM
- CC50: 23.2 µM

Structure (SMILES): CCOCC(=O)Nc1ccc(OCc2ccccc2)cc1
- IC50: 29.5 µM
- IC90: > 100 µM

Structure (SMILES): O=C(Nc1ccc(N2CCN(C(=O)c3ccccc3)CC2)cc1)c1ccc([N+](=O)[O-])o1
- IC50: < 0.195 µM
- IC90: < 0.195 µM
- CC50: 1.63 µM

Structure (SMILES): c1ccc2c(-c3nc(C4CCCCC4)no3)cc(-c3ccncc3)nc2c1
- IC50: 7 µM
- IC90: 10.9 µM
- CC50: > 40 µM

Structure (SMILES): CCCOC(=O)c1ccc(NC(=O)CCOc2ccccc2)cc1
- IC50: 0.622 µM
- IC90: > 100 µM

Structure (SMILES): COc1cc(CC(=O)Nc2ccc3nc(SC)sc3c2)cc(OC)c1OC
- IC50: 11.3 µM
- IC90: 16.1 µM

Structure (SMILES): Cc1ccn2c(NC3CCCC3)c(-c3ccccn3)nc2c1
- IC50: 3.19 µM
- IC90: 5.24 µM
- CC50: 8.93 µM

Structure (SMILES): CSCCC(NC(=O)c1cc([N+](=O)[O-])cc([N+](=O)[O-])c1)c1nc2ccccc2[nH]1 (configuration not stated)
- IC50: 5.37 µM
- IC90: 5.96 µM

Structure (SMILES): CCCc1cc(=O)[nH]c(SCC(=O)Nc2nc3ccc(OCC)cc3s2)n1
- CC50: > 40 µM

Structure (SMILES): Cc1nc(C)c(/C(O)=C/c2nc3ccccc3oc2=O)s1
- IC50: < 0.195 µM
- IC90: > 100 µM

Structure (SMILES): COc1cc(OC)cc(C(=O)Nc2nc(-c3ccccc3)c(-c3ccccc3)o2)c1
- IC50: 0.322 µM
- IC90: 4.94 µM
- CC50: 30.9 µM

Structure (SMILES): O=[N+]([O-])c1cccnc1N1CCC(c2cc(-c3cccc(C(F)(F)F)c3)n[nH]2)CC1
- IC50: 6.34 µM
- IC90: 11 µM
- CC50: > 40 µM
